The term EC50 denotes the concentration that produces a half-maximal response. By CC50 is commonly meant the concentration giving 50% cytotoxicity.

The source of these data is patent publication US12594276B2, “Inhibitors of human immunodeficiency virus replication” (ViiV Healthcare UK (No.5) Limited, priority 2024, dated 2026).

The subject of data set [1] is recombinant NL4-3 virus (nef section replaced with Renilla luciferase gene) in MT-2 cells. The data set can be described thus: HIV cell culture assay (antiviral activity, luciferase readout). Type of data set: cell-based. The settings on record: Renilla, NL43, MT-2 cells infected for 4-5 days with recombinant NL4-3 Renilla luciferase virus. The essentials: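 293T transfection → virus harvest at 2-3 d → titer in MT-2 by luciferase. MT-2 + virus + serial cpd dilutions, 4-5 d. Live-cell luciferase read; EC50 by median effect fit.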

Data set [2] in a line: Compound cytotoxicity, XTT-based colorimetric assay. Type of data set: cell-based. As to conditions: human; uninfected MT2 cells, day 4, XTT; read-out: CC50. In a few lines: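 CC50 derived from XTT colorimetric signal measured on day 4 in MT2 cells that were not infected. All other steps followed the antiviral assay protocol.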
(Tetrazolium assays rely on reduction of a dye to a coloured formazan, in cell work by metabolically active cells.)

For the molecule `Cc1cc(C2CCC(F)(F)CC2)nc2nc([C@H](Cc3cc(F)cc(F)c3)NC(=O)Cn3nc(C4CC4)c4c3C[C@@H]3C[C@H]43)n(-c3ccc(Cl)c4c(NS(C)(=O)=O)nn(CCN5C[C@H](C)OC(C)(C)C5)c34)c(=O)c12` (atropisomer, axis not shown; (P)) [Example 458, N-[(1S)-1-[(3P)-3-(4-chloro-3-methanesulfonamido-1-{2-[(6S)-2,2,6-trimethylmorpholin-4-yl]ethyl}-1H-indazol-7-yl)-7-(4,4-difluorocyclohexyl)-5-methyl-4-oxo-3H,4H-pyrido[2,3-d]pyrimidin-2-yl]-2-(3,5-difluorophenyl)ethyl]-2-[(2S,4S)-9-cyclopropyl-7,8-diazatricyclo[4.3.0.0^2,^4]nona-1(6),8-dien-7-yl]acetamide], the concentration for a half-maximal effect (EC50) in data set [1] stood at 0.007 nM. Besides, the CC50 at 4 days in data set [2] was above 20 nM.

As to `Cc1cc(C2CCC(F)(F)CC2)nc2nc([C@H](Cc3cc(F)cc(F)c3)NC(=O)Cn3nc(C4CC4)c4c3C[C@@H]3C[C@H]43)n(-c3ccc(Cl)c4c(NS(C)(=O)=O)nn(CCN5C[C@@H](C)OC(C)(C)C5)c34)c(=O)c12` (atropisomer, axis not shown; (P)) [Example 459, N-[(1S)-1-[(3P)-3-(4-chloro-3-methanesulfonamido-1-{2-[(6R)-2,2,6-trimethylmorpholin-4-yl]ethyl}-1H-indazol-7-yl)-7-(4,4-difluorocyclohexyl)-5-methyl-4-oxo-3H,4H-pyrido[2,3-d]pyrimidin-2-yl]-2-(3,5-difluorophenyl)ethyl]-2-[(2S,4S)-9-cyclopropyl-7,8-diazatricyclo[4.3.0.0^2,^4]nona-1(6),8-dien-7-yl]acetamide], in data set [1], the EC50 turned out to be 0.005 nM. Further, the CC50 at 4 days in data set [2] is above 20 nM.

Take `C[C@@H]1CN(CCn2nc(NS(C)(=O)=O)c3c(Cl)ccc(-n4c([C@H](Cc5cc(F)cc(F)c5)NC(=O)Cn5nc(C6CC6)c6c5C[C@@H]5C[C@H]65)nc5nc(C6CCC(F)(F)CC6)cc(C(F)F)c5c4=O)c32)CC(C)(C)O1` (atropisomer, axis not shown; (P)) [Example 462, N-[(1S)-1-[(3P)-3-(4-chloro-3-methanesulfonamido-1-{2-[(6R)-2,2,6-trimethylmorpholin-4-yl]ethyl}-1H-indazol-7-yl)-7-(4,4-difluorocyclohexyl)-5-(difluoromethyl)-4-oxo-3H,4H-pyrido[2,3-d]pyrimidin-2-yl]-2-(3,5-difluorophenyl)ethyl]-2-[(2S,4S)-9-cyclopropyl-7,8-diazatricyclo[4.3.0.0^2,^4]nona-1(6),8-dien-7-yl]acetamide]: the EC50 in data set [1] worked out at 0.019 nM. The CC50 at 4 days in data set [2] was above 20 nM.

For the molecule `CC(C)[C@H]1CN(CCn2nc(NS(C)(=O)=O)c3c(Cl)ccc(-n4c([C@H](Cc5cc(F)cc(F)c5)NC(=O)Cn5nc(C6CC6)c6c5C[C@@H]5C[C@H]65)nc5nc(C6CCC(F)(F)CC6)cc(C(F)F)c5c4=O)c32)CCO1` (atropisomer, axis not shown; (P)) [Example 467, N-[(1S)-1-[(3P)-3-(4-chloro-3-methanesulfonamido-1-{2-[(2S)-2-(propan-2-yl)morpholin-4-yl]ethyl}-1H-indazol-7-yl)-7-(4,4-difluorocyclohexyl)-5-(difluoromethyl)-4-oxo-3H,4H-pyrido[2,3-d]pyrimidin-2-yl]-2-(3,5-difluorophenyl)ethyl]-2-[(2S,4S)-9-cyclopropyl-7,8-diazatricyclo[4.3.0.0^2,^4]nona-1(6),8-dien-7-yl]acetamide], the EC50 in data set [1] worked out at 0.017 nM. In data set [2], the CC50 at 4 days was above 20 nM.

With `COCCCn1nc(NS(C)(=O)=O)c2c(Cl)ccc(-n3c([C@H](Cc4cc(F)cc(F)c4)NC(=O)Cn4nc(C(F)F)c5c4C(F)(F)[C@@H]4C[C@H]54)nc4nc(C5CCC(F)(F)CC5)cc(CN5CC(C)(C)OC(C)(C)C5)c4c3=O)c21` (atropisomer, axis not shown; (P)) [Example 471, N-[(1S)-1-[(3P)-3-[4-chloro-3-methanesulfonamido-1-(3-methoxypropyl)-1H-indazol-7-yl]-7-(4,4-difluorocyclohexyl)-4-oxo-5-[(2,2,6,6-tetramethylmorpholin-4-yl)methyl]-3H,4H-pyrido[2,3-d]pyrimidin-2-yl]-2-(3,5-difluorophenyl)ethyl]-2-[(2S,4R)-9-(difluoromethyl)-5,5-difluoro-7,8-diazatricyclo[4.3.0.0^2,^4]nona-1(6),8-dien-7-yl]acetamide], in data set [1], the EC50 was found to be 0.038 nM. The CC50 at 4 days in data set [2] was above 20 nM.

With `CNCc1cc(C2CCC(F)(F)CC2)nc2nc([C@H](Cc3cc(F)cc(F)c3)NC(=O)Cn3nc(C(F)F)c4c3C(F)(F)[C@@H]3C[C@H]43)n(-c3ccc(Cl)c4c(NS(C)(=O)=O)nn(CCCOC)c34)c(=O)c12` (atropisomer, axis not shown; (P)) [Example 472, N-[(1S)-1-[(3P)-3-[4-chloro-3-methanesulfonamido-1-(3-methoxypropyl)-1H-indazol-7-yl]-7-(4,4-difluorocyclohexyl)-5-[(methylamino)methyl]-4-oxo-3H,4H-pyrido[2,3-d]pyrimidin-2-yl]-2-(3,5-difluorophenyl)ethyl]-2-[(2S,4R)-9-(difluoromethyl)-5,5-difluoro-7,8-diazatricyclo[4.3.0.0^2,^4]nona-1(6),8-dien-7-yl]acetamide], in data set [1], the EC50 came to 0.087 nM. Besides, the CC50 at 4 days in data set [2] is above 20 nM.

Turning to `Cc1cc(C2(C)CCC(F)(F)CC2)nc2nc([C@H](Cc3cc(F)cc(F)c3)NC(=O)Cn3nc(C(F)F)c4c3C(F)(F)[C@@H]3C[C@H]43)n(-c3ccc(Cl)c4c(NS(C)(=O)=O)nn(CCN5C[C@H](F)C[C@H](F)C5)c34)c(=O)c12` (atropisomer, axis not shown; (P)) [Example 473, N-[(1S)-1-[(3P)-3-(4-chloro-1-{2-[(3R,5S)-3,5-difluoropiperidin-1-yl]ethyl}-3-methanesulfonamido-1H-indazol-7-yl)-7-(4,4-difluoro-1-methylcyclohexyl)-5-methyl-4-oxo-3H,4H-pyrido[2,3-d]pyrimidin-2-yl]-2-(3,5-difluorophenyl)ethyl]-2-[(2S,4R)-9-(difluoromethyl)-5,5-difluoro-7,8-diazatricyclo[4.3.0.0^2,^4]nona-1(6),8-dien-7-yl]acetamide], in data set [1], the EC50 worked out at 0.008 nM. In data set [2], the CC50 at 4 days was above 20 nM.

Take `COCCCn1nc(NS(C)(=O)=O)c2c(Cl)ccc(-n3c([C@H](Cc4cc(F)cc(F)c4)NC(=O)Cn4nc(C(F)F)c5c4C(F)(F)[C@@H]4C[C@H]54)nc4nc(C5CCC(F)(F)CC5)cc(NCCN5C[C@@H](C)O[C@@H](C)C5)c4c3=O)c21` (atropisomer, axis not shown; (P)) [Example 475]: the EC50 in data set [1] was determined as 0.004 nM. The CC50 at 4 days in data set [2] was above 20 nM.
